# From US6949571B2, “1,2-dihydropyridine compounds, process for preparation of the same and use thereof” (Eisai Co., Ltd., priority 2000, dated 2005)
# Tested on: AMPA receptor
# Settings: Table 1; primary culture of rat embryo cerebral cortex nerve cells, 2 μM AMPA, 1 μM MK-801
# Protocol: Cerebral cortex was cut out from the brain of rat of gestational 18 days and treated with trypsin and DNase to disperse the cells. The cells were flown by MEM containing 10% of serum, sown in a culture bottle and astrocytes were proliferated. The astrocytes were re-dispersed by trypsin and sown in a 96-well plate. After incubation for one week, it was confirmed that the astrocytes covered all over the bottom and then the nerve cells of cerebral cortex which was dispersed by the above method were sown thereupon. After incubation for 24 hours, the medium was changed, the incubation was carried out for one week and, after that, the medium was changed to that containing 1 μM of MK-801. Nerve cells which were incubated for not shorter than 8 to 10 days were used.
# Calcium influx into the cells was measured using Fura2-AM which was a calcium-sensitive fluorescent dye. It was treated in a medium containing Fura2-AM for 1 hour, incorporated into the cells, exchanged to a Tyrode solution containing 1 μM MK-801 and stimulation was carried out using 2 μM AMPA. Change in the amount of calcium flown into the cells were measured as the change in the fluorescent intensity at the exciting wave length of 340/380 nm.
# 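Note: primary rat embryonic cortical neurons grown on an astrocyte layer in 96-well plates, used after at least 8 to 10 days in culture, Fura2-AM fluorescence ratio at 340/380 nm excitation.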
row,Compound,IC50 [µM]
1,"O=c1c(-c2cccc(F)c2)cc(-c2ccccn2)cn1-c1ccccc1 [Example 72, 3-(3-Fluorophenyl)-5-(2-pyridyl)-1-phenyl-1,2-dihydropyridin-2-one]",0.7
2,"N#Cc1cccc(-c2cc(-c3ccccc3)cn(-c3cccnc3)c2=O)n1 [Example 79, 3-(6-Cyano-2-pyridyl)-5-phenyl-1-(3-pyridyl)-1,2-dihydropyridin-2-one]",2.6
3,"O=c1c(-c2cccnc2F)cc(-c2ccccn2)cn1-c1cccc(F)c1 [Example 88, 3-(2-Fluoro-3-pyridyl)-5-(2-pyridyl)-1-(3-fluorophenyl)-1,2-dihydropyridin-2-one]",0.3
4,"O=c1c(-c2ccc(Cl)cc2Cl)cc(-c2ccccn2)cn1-c1cccnc1 [Example 131, 3-(2.4-Dichlorophenyl)-5-(2-pyridyl)-1-(3-pyridyl)-1,2-dihydropyridin-2-one]",3.7
5,"O=c1c(-c2ccccc2F)cc(-c2ccccn2)cn1-c1ccccc1 [Example 71, 3-(2-Fluorophenyl)-5-(2-pyridyl)-1-phenyl-1,2-dihydropyridin-2-one]",0.05
6,"O=c1c(-c2ccccc2)cc(-c2ccccn2)cn1-c1cccnc1 [Example 127, 3-Phenyl-5-(2-pyridyl)-1-(3-pyridyl)-1,2-dihydropyridin-2-one]",0.4
7,"N#Cc1ccccc1-c1cc(-c2ccccc2)c(=O)n(-c2ccccn2)c1 [Example 38, 3-Phenyl-5-(2-cyanophenyl)-1-(2-pyridyl)-1,2-dihydropyridin-2-one]",6.3
8,"O=c1c(-c2ccccc2C(F)(F)F)cc(-c2ccccn2)cn1-c1cccnc1 [Example 132, 3-(2-Trifluoromethylphenyl)-5-(2-pyridyl)-1-(3-pyridyl)-1,2-dihydropyridin-2-one]",3.1
9,"N#Cc1ccccc1-c1cc(-c2ccccn2)c(=O)n(-c2ccccc2)c1 [Example 33, 3-(2-Pyridyl)-5-(2-cyanophenyl)-1-phenyl-1,2-dihydropyridin-2-one]",0.7
10,"O=c1c(-c2ccc(F)cc2)cc(-c2ccccn2)cn1-c1ccccc1 [Example 73, 3-(4-Fluorophenyl)-5-(2-pyridyl)-1-phenyl-1,2-dihydropyridin-2-one]",1.2
11,"N#Cc1ccccc1-c1cc(-c2ccccn2)cn(-c2ccc(N3CCN(Cc4ccccc4)CC3)nc2)c1=O [Example 113, 3-(2-Cyanophenyl)-5-(2-pyridyl)-1-[2-(4-benzylpiperazin-1-yl)-pyridin-5-yl]-1,2-dihydropyridin-2-one]",1.2
12,"N#Cc1ccccc1-c1cc(-c2ccsc2C=O)cn(-c2ccccc2)c1=O [Example 28, 3-(2-Cyanophenyl)-5-(2-formylthiophen-3-yl)-1-phenyl-1,2-dihydropyridin-2-one]",0.2
13,"O=c1c(-c2ccc(Cl)cc2)cc(-c2ccccn2)cn1-c1ccccc1 [Example 66, 3-(4-Chlorophenyl)-5-(2-pyridyl)-1-phenyl-1,2-dihydropyridin-2-one]",2.4
14,"CS(=O)(=O)NCc1cccc(-n2cc(-c3ccccn3)cc(-c3ccccc3C#N)c2=O)c1 [Example 24, 3-(2-Cyanophenyl)-5-(2-pyridyl)-1-(3-methylsulfonylaminomethylphenyl)-1,2-dihydropyridin-2-one]",0.2
15,"COc1ccc(-n2cc(-c3ccccn3)cc(-c3ccccc3Cl)c2=O)cc1 [Example 17, 3-(2-Chlorophenyl)-5-(2-pyridyl)-1-(4-methoxyphenyl)-1,2-dihydropyridin-2-one]",0.7
16,"N#Cc1ccc(-n2cc(-c3ccccn3)cc(-c3ccccc3C#N)c2=O)cc1 [Example 93, 3-(2-Cyanophenyl)-5-(2-pyridyl)-1-(4-cyanophenyl)-1,2-dihydropyridin-2-one]",1.9

# Same assay, conditions: Table 2; suppression of AMPA-induced calcium influx into nerve cells
row,IC50 [µM],Compound
1,2,"O=c1c(C23CC4CC(CC(C4)C2)C3)cc(-c2ccccn2)cn1-c1ccccc1 [Example 178, 3-(1-Adamantyl)-5-(2-pyridyl)-1-phenyl-1,2-dihydropyridin-2-one]"
2,4.2,"O=C1C=C(c2cc(-c3ccccn3)cn(-c3ccccc3)c2=O)CCC1 [Example 268, 3-(3-Oxo-1-cyclohexen-1-yl)-1-phenyl-5-(2-pyridyl)-1,2-dihydropyridin-2-one]"
3,6,"N#Cc1ccccc1-c1cc(-c2nc3ccccc3n2-c2ccccc2)cn(-c2ccccc2)c1=O [Example 182, 3-(2-Cyanophenyl)-5-(1-phenylbenzimidazol-2-yl)-1-phenyl-1,2-dihydropyridin-2-one]"
4,2,"O=c1c(-c2ccnnc2)cc(-c2ccccn2)cn1-c1ccccc1 [Example 259, 1-Phenyl-3-(4-pyridazyl)-5-(2-pyridyl)-1,2-dihydropyridin-2-one]"
5,2.4,"N#Cc1ccccc1-c1cc(-c2ncccc2N)cn(-c2ccccc2)c1=O [Example 216, 5-(3-Aminopyridin-2-yl)-3-(2-cyanophenyl)-1-phenyl-1,2-dihydropyridin-2-one]"
6,8.5,"O=c1c(Sc2ccc(Cl)cc2)cc(-c2ccccn2)cn1-c1ccccc1 [Example 188, 3-(4-Chlorophenylthio)-5-(2-pyridyl)-1-phenyl-1,2-dihydropyridin-2-one]"
7,0.6,"N#Cc1ncccc1-c1cc(-c2ccccn2)cn(-c2cccnc2)c1=O [Example 294, 3-(2-Cyanopyridin-3-yl)-5-(2-pyridyl)-1-(3-pyridyl)-1,2-dihydropyridin-2-one]"
8,1.5,"O=c1c(-c2cccc(O)c2)cc(-c2ccccn2)cn1-c1ccccc1 [Example 237, 3-(3-Hydroxyphenyl)-1-phenyl-5-(2-pyridyl)-1,2-dihydropyridin-2-one]"
9,0.2,"N#Cc1ccccc1-c1cc(-c2nccs2)cn(-c2ccccc2)c1=O [Example 201, 3-(2-Cyanophenyl)-1-phenyl-5-(2-thiazoyl)-1,2-dihydropyridin-2-one]"
10,0.1,"N#Cc1ccccc1-c1cc(-c2ncccn2)cn(-c2cccc([N+](=O)[O-])c2)c1=O [Example 266, 3-(2-Cyanophenyl)-1-(3-nitrophenyl)-5-(2-pyrimidinyl)-1,2-dihydropyridin-2-one]"
11,7,"N#Cc1ccccc1-c1cc(C2=COCCO2)cn(-c2ccccc2)c1=O [Example 209, 3-(2-Cyanophenyl)-5-(5.6-dihydro-1.4-dioxin-2-yl)-1-phenyl-1,2-dihydropyridin-2-one]"
12,4.2,"N#Cc1ccccc1-c1cc(-c2cccc[n+]2[O-])cn(-c2ccccc2)c1=O [Example 173, 3-(2-Cyanophenyl)-5-(2-pyridyl 1-oxide)-1-phenyl-1,2-dihydropyridin-2-one]"
13,2,"COc1ccc(-c2cc(-c3ccccc3C#N)c(=O)n(-c3ccccc3)c2)cn1 [Example 200, 3-(2-Cyanophenyl)-5-(2-methoxypyridin-5-yl)-1-phenyl-1,2-dihydropyridin-2-one]"
14,1.3,"O=c1c(-c2cccc3ccccc23)cc(-c2ccccn2)cn1-c1ccccc1 [Example 280, 3-(1-Naphthyl)-5-(2-pyridyl)-1-phenyl-1,2-dihydropyridin-2-one]"
15,0.1,"N#Cc1ccccc1-c1cc(-c2ccccn2)cn(-c2cccc(OCCN3CCCCC3)c2)c1=O [Example 240, 3-(2-Cyanophenyl)-1-[3-(piperidinoethoxy)phenyl]-5-(2-pyridyl)-1,2-dihydropyridin-2-one]"

row,Compound,IC50 [µM]
1,"N#Cc1ccccc1-c1cc(-c2ccccn2)cn(-c2cccc3ccccc23)c1=O [Example 291, 3-(2-Cyanophenyl)-5-(2-pyridyl)-1-(1-naphthyl)-1,2-dihydropyridin-2-one]",0.14
2,"N#Cc1ccccc1-c1cc(-c2ccccn2)cn(-c2cccc(OCc3ccccc3)c2)c1=O [Example 276, 1-[3-(Benzyloxy)phenyl]-3-(2-cyanophenyl)-5-(2-pyridyl)-1,2-dihydropyridin-2-one]",1.9
3,"N#Cc1ccccc1-c1cc(-c2ccc(O)cn2)cn(-c2ccccc2)c1=O [Example 163, 3-(2-Cyanophenyl)-5-(5-hydroxypyridin-2-yl)-1-phenyl-1,2-dihydropyridin-2-one]",8.2
4,"N#Cc1ccccc1-c1cc(-c2cccc(Br)n2)cn(-c2ccccc2)c1=O [Example 300, 5-(2-Bromopyridin-6-yl)-3-(2-cyanophenyl)-1-phenyl-1,2-dihydropyridin-2-one]",0.3

# Same assay, conditions: Table 3; primary culture of rat embryo cerebral cortex nerve cells, 2 μM AMPA, 1 μM MK-801
row,Compound,IC50 [µM]
1,"N#Cc1ccccc1-c1cc(-c2nc3ccccc3[nH]2)cn(-c2ccccc2)c1=O [Example 386, 3-(2-Cyanophenyl)-5-(1H-benzimidazol-2-yl)-1-phenyl-1,2-dihydropyridin-2-one]",3.5
2,"N#Cc1ccccc1-c1cc(C(=O)c2ccccn2)cn(-c2ccccc2)c1=O [Example 394, 3-(2-Cyanophenyl)-5-(2-pyridinecarbonyl)-1-phenyl-1,2-dihydropyridin-2-one]",1.4
3,"CC(=O)N1CCC(Oc2cccc(-n3cc(-c4ccccn4)cc(-c4ccccc4C#N)c3=O)c2)CC1 [Example 333, 1-[3-(N-acetylpiperidin-4-yl-oxy)phenyl]-3-(2-cyanophenyl)-5-(2-pyridyl)-1,2-dihydropyridin-2-one]",0.3
4,"CCOC(=O)C=Cc1sccc1-c1cc(-c2ccccn2)cn(-c2ccccc2)c1=O [Example 398, 3-[(2-Ethoxycarbonyl)vinylthiophen-3-yl]-5-(2-pyridyl)-1-phenyl-1,2-dihydropyridin-2-one]",0.2
5,"O=C(c1cc(-c2ccccc2)c(=O)n(-c2ccccc2)c1)c1ccccn1 [Example 395, 5-(2-Pyridinecarbonyl)-1-phenyl-3-phenyl-1,2-dihydropyridin-2-one]",0.9
6,"Cc1ccc(-n2cc(-c3ccccn3)cc(-c3ccccc3C#N)c2=O)cc1[N+](=O)[O-] [Example 381, 3-(2-Cyanophenyl)-5-(2-pyridyl)-1-(2-nitrotoluen-4-yl)-1,2-dihydropyridin-2-one]",0.4
7,"N#Cc1ccccc1Nc1cc(-c2ccccn2)cn(-c2ccccc2)c1=O [Example 321, 3-(2-Cyanophenylamino)-5-(2-pyridyl)-1-phenyl-1,2-dihydropyridin-2-one]",4
8,"N#Cc1ccccc1-c1cc(-c2ccccn2)cn(CC2CCN(C(=O)OCc3ccccc3)CC2)c1=O [Example 319, 1-[1-(Benzyloxycarbonyl)piperidin-4-yl]methyl-3-(2-cyanophenyl)-5-(2-pyridyl)-1,2-dihydropyridin-2-one]",2
